Reference: PubChem BioAssay (NCI)
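Growth conditions: 96-well plates. Treatment: test compound, 48 hours, 5 concentrations. Analysis: linear interpolation between bracketing concentrations; unreached endpoints set to highest concentration. At the GI50, growth is halved. TGI is the concentration that stops growth completely.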

Assays:
Assay in all cases: NCI anticancer screen, dose series, 48 h; in the data active means GI50 below about 0.43 µM; inactive means the rest
[1] = test system: OVCAR-5 ovarian
[2] = test system: HOP-62 NSCLC
[3] = test system: CAKI-1 renal
[4] = test system: NCI-H23 lung
[5] = test system: NCI-H522 lung
[6] = test system: MOLT-4 leukemia
[7] = test system: SK-OV-3 ovarian
[8] = test system: OVCAR-3 ovarian
[9] = test system: DU-145 prostate
[10] = test system: HS 578T breast

Cc1cc2c(cc1C)[n+](=O)c(C(=O)C/C(=N/OCCCc1ccccc1)C(=O)Nc1cc(Cl)ccc1Cl)c(C)n2[O-]
> 100 µM: TGI [1] | TGI [2] | TGI [3] | TGI [4] | TGI [5] | TGI [6] | TGI [7] | TGI [8]

COc1ccc2c(c1)[nH]c(=O)c1c3cc(OC)ccc3cn21
4.2 µM: TGI [7]
0.0204 µM: TGI [8]
2.3 µM: TGI [1]
0.788 µM: TGI [6]
0.256 µM: TGI [9]
0.564 µM: TGI [5]
active: GI50 [1] 0.0545 µM | GI50 [2] 0.179 µM | GI50 [3] < 0.01 µM | GI50 [4] 0.046 µM | GI50 [5] 0.022 µM | GI50 [6] < 0.0145 µM | GI50 [9] < 0.019 µM | GI50 [7] 0.0522 µM | GI50 [8] < 0.01 µM
1.12 µM: TGI [4]
< 0.01 µM: TGI [3]
2.05 µM: TGI [2]

COC(=O)C(C(=O)C(=O)Nc1nc(=S)[nH][nH]1)c1csc(-n2nc(-c3ccccc3)cc2-c2ccccc2)n1 (centres undefined)
> 100 µM: TGI [1] | TGI [2] | TGI [3] | TGI [4] | TGI [5] | TGI [6] | TGI [7] | TGI [8]

O=C1c2nsnc2C(=O)c2c(F)c(F)c(F)c(F)c21
inactive: GI50 [1] 1.93 µM | GI50 [2] 0.913 µM | GI50 [9] 1.32 µM | GI50 [7] 2.04 µM
active: GI50 [6] 0.298 µM | GI50 [10] 0.342 µM
1.44 µM: TGI [6]
1.96 µM: TGI [10]
3.47 µM: TGI [1]
2.24 µM: TGI [2]
2.63 µM: TGI [9]
3.7 µM: TGI [7]

NC(N)=N/N=C/c1c(-c2cc(Cl)sc2Cl)nc2sccn12
1.91 µM: TGI [6]
16.3 µM: TGI [3]
> 50 µM: TGI [5]
14.9 µM: TGI [4]
7.24 µM: TGI [2]
3.4 µM: TGI [8]
inactive: GI50 [1] 0.956 µM | GI50 [2] 2.07 µM | GI50 [3] 7.65 µM | GI50 [4] 7.5 µM | GI50 [5] 1.76 µM | GI50 [6] 0.912 µM | GI50 [10] 0.89 µM | GI50 [8] 1.27 µM
2.05 µM: TGI [1]
2.77 µM: TGI [10]

CC(=O)Nc1cc(N(CCOS(C)(=O)=O)CCOS(C)(=O)=O)ccc1N=O
> 100 µM: TGI [1] | TGI [2] | TGI [3] | TGI [4] | TGI [5] | TGI [6] | TGI [8]

O=C(O)C[C@H]1CCCCC12CCOC2=O (some centres undefined)
> 100 µM: TGI [1] | TGI [2] | TGI [3] | TGI [4] | TGI [5] | TGI [6] | TGI [7] | TGI [8]

Cc1ccc(NC(=O)C(=O)C(C#N)c2nc(-c3ccc(-c4ccccc4)cc3)cs2)c(C)c1 (centres undefined)
> 100 µM: TGI [1] | TGI [2] | TGI [3] | TGI [6] | TGI [7] | TGI [8]
> 1 µM: TGI [4]

O=C(c1ccccc1)[C@H]1Nc2ccc(Cl)cc2C2c3ccccc3CC21 (some centres undefined)
> 100 µM: TGI [1] | TGI [2] | TGI [3] | TGI [4] | TGI [5] | TGI [6]
66.1 µM: TGI [8]

N#Cc1ccccc1NC(=O)C(=O)c1c(O)c2ccccc2oc1=O
> 100 µM: TGI [1] | TGI [2] | TGI [3] | TGI [4] | TGI [5] | TGI [10] | TGI [7] | TGI [8]

CC1COc2c(N3CCN(C)CC3)c(F)cc3c(=O)c(C(=O)O)cn1c23 (centres undefined)
> 100 µM: TGI [1] | TGI [2] | TGI [3] | TGI [4] | TGI [5] | TGI [10] | TGI [9] | TGI [7] | TGI [8]
inactive: GI50 [1] 84.4 µM | GI50 [2] > 100 µM | GI50 [3] > 100 µM | GI50 [4] > 100 µM | GI50 [5] > 100 µM | GI50 [10] > 100 µM | GI50 [9] > 100 µM | GI50 [7] > 100 µM | GI50 [8] > 100 µM

O=C(c1ccccc1)N1C2CCC1C(C(F)(F)F)=C2C(F)(F)F
> 100 µM: TGI [1] | TGI [2] | TGI [3] | TGI [4] | TGI [5] | TGI [6] | TGI [7] | TGI [8]

CNCc1cc(OC)ccc1-c1ccc(OC)c(OC)c1OC
> 100 µM: TGI [1] | TGI [2] | TGI [3] | TGI [4] | TGI [5] | TGI [6] | TGI [7] | TGI [8]

CCN1C(=O)N(CC)C2Nn3c(s/c(=C\c4ccccc4Br)c3=O)=NC21 (centres undefined)
38.2 µM: TGI [3]
23.2 µM: TGI [6]
> 100 µM: TGI [1] | TGI [2] | TGI [4]
7.7 µM: TGI [7]
inactive: GI50 [1] 2.01 µM | GI50 [2] 2.81 µM | GI50 [3] 1.75 µM | GI50 [4] 2.7 µM | GI50 [5] 1.26 µM | GI50 [6] 2.28 µM | GI50 [7] 2.15 µM | GI50 [8] 1.05 µM
4.15 µM: TGI [5]
5.02 µM: TGI [8]

COC(=O)C(CC(C)C)NC(=O)NC12CC3CC(CC(F)(C3)C1)C2 (centres undefined)
> 100 µM: TGI [1] | TGI [2] | TGI [4] | TGI [5] | TGI [6] | TGI [7] | TGI [8]

O=C1NC(=O)C(=C/C=C/c2ccccc2)C(=O)N1
7.15 µM: TGI [5]
inactive: GI50 [1] 5.33 µM | GI50 [2] 12 µM | GI50 [4] 2.16 µM | GI50 [5] 2.36 µM | GI50 [6] 4.12 µM | GI50 [10] 4.81 µM | GI50 [9] 2.13 µM | GI50 [7] 16.5 µM | GI50 [8] 1.53 µM
23 µM: TGI [1]
3.97 µM: TGI [8]
25.5 µM: TGI [2]
50.4 µM: TGI [10]
25.1 µM: TGI [6]
5.29 µM: TGI [4]
4.87 µM: TGI [9]
30.5 µM: TGI [7]

Cc1ccc(-c2cc3c(SCC(=O)Nc4cc(C(F)(F)F)ccc4Cl)nccn3n2)cc1
> 100 µM: TGI [1] | TGI [2] | TGI [3] | TGI [4] | TGI [6] | TGI [10] | TGI [9] | TGI [7] | TGI [8]
inactive: GI50 [1] > 100 µM | GI50 [2] 58.2 µM | GI50 [3] > 100 µM | GI50 [4] > 100 µM | GI50 [6] > 100 µM | GI50 [10] 11.7 µM | GI50 [9] > 100 µM | GI50 [7] 69.4 µM | GI50 [8] > 100 µM

CC(/C(=N\Nc1ccccc1)c1ccc(O)cc1)C1C(=O)Oc2ccccc21 (centres undefined)
> 100 µM: TGI [2] | TGI [3] | TGI [6] | TGI [8]

COC(=O)/C(=N\Nc1nc(=S)[nH]n1N)C(C#N)c1ccccc1 (centres undefined)
> 100 µM: TGI [1] | TGI [2] | TGI [4] | TGI [5] | TGI [6] | TGI [7] | TGI [8]

COC(=O)C(Cc1cc(OC)c(OC)c(OC)c1)c1ccc(OC)cc1 (centres undefined)
> 100 µM: TGI [1] | TGI [2] | TGI [3] | TGI [5] | TGI [6] | TGI [8]
